Source: patent publication US8134007B2, “Pyridine derivatives” (Pfizer Inc., priority 2007, dated 2012)
pIC50: −log10 of the molar value. Like-named read-outs stand apart in the source and are kept apart here.

Legend:
Assay type in all cases: cell-based
Human Nav1.8 = target: T1, Human Nav1.8 (Homo sapiens, UniProt Q9Y5Y9); assay: VIPR Assay for Nav1.8 Compounds (FRET membrane potential, deltamethrin opener)
T1 construct: expressed in transfected cells; host or cells: HEK293

[1] = system: tetrodotoxin-sensitive voltage-gated sodium channels including NaV1.2, NaV1.3 and NaV1.7; assay: TTX-S Assay (VIPR, SHSY-5Y cell line, veratridine opener); details: read-out: TTX-S IC50, veratridine 50 μM opener, average of replicates
Human Nav1.5 = target: T2, Human Nav1.5 (Homo sapiens, UniProt Q14524); assay: Nav1.5 Assay (VIPR, HEK293 cells)
T2 construct: expressed in transfected cells; host or cells: HEK293
Description: The Nav1.5 assay is performed in HEK293 cells expressing Human Nav1.5 in the same way as the Nav1.8 assay.
Where replicate experiments were conducted resulting in multiple sets of data for a test compound, the data presented represent the average value from all replicate experiments.

[2] = VIPR FRET membrane potential assay, deltamethrin opener, average of replicates, read-out: Nav1.8 IC50
[3] = HEK293 cells expressing Human Nav1.5, average of replicates, read-out: Nav1.5 IC50

T2 sequence (Q14524 whole entry): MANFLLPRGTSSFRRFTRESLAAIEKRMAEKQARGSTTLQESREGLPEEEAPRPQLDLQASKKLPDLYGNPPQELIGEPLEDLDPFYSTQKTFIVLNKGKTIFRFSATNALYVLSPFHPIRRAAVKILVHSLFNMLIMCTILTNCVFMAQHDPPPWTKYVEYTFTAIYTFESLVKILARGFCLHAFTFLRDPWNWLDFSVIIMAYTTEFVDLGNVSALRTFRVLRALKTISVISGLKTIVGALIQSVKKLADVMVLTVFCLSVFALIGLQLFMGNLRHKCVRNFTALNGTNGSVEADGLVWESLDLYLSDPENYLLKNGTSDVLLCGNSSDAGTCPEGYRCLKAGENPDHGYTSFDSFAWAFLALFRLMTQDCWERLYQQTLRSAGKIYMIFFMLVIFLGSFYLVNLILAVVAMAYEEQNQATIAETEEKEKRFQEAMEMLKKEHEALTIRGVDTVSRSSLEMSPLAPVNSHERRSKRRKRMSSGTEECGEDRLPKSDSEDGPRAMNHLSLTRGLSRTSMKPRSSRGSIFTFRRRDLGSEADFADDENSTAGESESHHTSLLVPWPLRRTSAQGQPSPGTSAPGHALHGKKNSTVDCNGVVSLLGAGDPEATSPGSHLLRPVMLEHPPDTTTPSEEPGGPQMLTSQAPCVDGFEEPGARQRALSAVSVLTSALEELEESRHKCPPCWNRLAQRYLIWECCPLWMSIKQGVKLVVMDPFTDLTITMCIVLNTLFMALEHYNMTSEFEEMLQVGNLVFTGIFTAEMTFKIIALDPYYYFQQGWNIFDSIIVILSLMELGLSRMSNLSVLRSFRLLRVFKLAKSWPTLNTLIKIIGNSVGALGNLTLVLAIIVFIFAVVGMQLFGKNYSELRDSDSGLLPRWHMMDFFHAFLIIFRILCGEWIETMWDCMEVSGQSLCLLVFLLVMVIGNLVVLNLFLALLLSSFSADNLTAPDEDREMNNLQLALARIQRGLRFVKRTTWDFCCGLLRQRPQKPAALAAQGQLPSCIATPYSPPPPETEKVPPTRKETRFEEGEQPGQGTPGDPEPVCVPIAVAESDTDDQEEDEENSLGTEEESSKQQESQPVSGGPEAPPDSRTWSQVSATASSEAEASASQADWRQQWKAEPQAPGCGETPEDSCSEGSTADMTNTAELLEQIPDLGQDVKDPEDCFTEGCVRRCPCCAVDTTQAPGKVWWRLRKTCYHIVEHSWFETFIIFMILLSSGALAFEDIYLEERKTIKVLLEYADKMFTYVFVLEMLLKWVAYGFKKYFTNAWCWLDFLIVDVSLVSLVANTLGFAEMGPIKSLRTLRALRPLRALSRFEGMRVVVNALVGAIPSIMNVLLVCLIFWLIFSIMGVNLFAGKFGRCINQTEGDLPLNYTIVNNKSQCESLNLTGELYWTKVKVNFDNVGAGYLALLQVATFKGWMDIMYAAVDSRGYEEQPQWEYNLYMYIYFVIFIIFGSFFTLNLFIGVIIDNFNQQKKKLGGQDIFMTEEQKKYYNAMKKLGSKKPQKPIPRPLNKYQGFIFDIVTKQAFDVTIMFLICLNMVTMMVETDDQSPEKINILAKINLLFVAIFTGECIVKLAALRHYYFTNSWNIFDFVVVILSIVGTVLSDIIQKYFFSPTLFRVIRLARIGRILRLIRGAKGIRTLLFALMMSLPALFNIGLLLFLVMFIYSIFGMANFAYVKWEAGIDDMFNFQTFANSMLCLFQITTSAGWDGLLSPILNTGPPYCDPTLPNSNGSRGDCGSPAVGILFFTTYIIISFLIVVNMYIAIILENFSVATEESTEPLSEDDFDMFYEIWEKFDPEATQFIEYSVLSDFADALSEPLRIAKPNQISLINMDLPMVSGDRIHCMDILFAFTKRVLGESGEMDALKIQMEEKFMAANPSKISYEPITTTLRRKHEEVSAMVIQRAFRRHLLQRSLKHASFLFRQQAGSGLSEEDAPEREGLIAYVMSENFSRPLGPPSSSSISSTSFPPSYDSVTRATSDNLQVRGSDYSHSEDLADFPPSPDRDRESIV
T1 sequence (Q9Y5Y9 whole entry): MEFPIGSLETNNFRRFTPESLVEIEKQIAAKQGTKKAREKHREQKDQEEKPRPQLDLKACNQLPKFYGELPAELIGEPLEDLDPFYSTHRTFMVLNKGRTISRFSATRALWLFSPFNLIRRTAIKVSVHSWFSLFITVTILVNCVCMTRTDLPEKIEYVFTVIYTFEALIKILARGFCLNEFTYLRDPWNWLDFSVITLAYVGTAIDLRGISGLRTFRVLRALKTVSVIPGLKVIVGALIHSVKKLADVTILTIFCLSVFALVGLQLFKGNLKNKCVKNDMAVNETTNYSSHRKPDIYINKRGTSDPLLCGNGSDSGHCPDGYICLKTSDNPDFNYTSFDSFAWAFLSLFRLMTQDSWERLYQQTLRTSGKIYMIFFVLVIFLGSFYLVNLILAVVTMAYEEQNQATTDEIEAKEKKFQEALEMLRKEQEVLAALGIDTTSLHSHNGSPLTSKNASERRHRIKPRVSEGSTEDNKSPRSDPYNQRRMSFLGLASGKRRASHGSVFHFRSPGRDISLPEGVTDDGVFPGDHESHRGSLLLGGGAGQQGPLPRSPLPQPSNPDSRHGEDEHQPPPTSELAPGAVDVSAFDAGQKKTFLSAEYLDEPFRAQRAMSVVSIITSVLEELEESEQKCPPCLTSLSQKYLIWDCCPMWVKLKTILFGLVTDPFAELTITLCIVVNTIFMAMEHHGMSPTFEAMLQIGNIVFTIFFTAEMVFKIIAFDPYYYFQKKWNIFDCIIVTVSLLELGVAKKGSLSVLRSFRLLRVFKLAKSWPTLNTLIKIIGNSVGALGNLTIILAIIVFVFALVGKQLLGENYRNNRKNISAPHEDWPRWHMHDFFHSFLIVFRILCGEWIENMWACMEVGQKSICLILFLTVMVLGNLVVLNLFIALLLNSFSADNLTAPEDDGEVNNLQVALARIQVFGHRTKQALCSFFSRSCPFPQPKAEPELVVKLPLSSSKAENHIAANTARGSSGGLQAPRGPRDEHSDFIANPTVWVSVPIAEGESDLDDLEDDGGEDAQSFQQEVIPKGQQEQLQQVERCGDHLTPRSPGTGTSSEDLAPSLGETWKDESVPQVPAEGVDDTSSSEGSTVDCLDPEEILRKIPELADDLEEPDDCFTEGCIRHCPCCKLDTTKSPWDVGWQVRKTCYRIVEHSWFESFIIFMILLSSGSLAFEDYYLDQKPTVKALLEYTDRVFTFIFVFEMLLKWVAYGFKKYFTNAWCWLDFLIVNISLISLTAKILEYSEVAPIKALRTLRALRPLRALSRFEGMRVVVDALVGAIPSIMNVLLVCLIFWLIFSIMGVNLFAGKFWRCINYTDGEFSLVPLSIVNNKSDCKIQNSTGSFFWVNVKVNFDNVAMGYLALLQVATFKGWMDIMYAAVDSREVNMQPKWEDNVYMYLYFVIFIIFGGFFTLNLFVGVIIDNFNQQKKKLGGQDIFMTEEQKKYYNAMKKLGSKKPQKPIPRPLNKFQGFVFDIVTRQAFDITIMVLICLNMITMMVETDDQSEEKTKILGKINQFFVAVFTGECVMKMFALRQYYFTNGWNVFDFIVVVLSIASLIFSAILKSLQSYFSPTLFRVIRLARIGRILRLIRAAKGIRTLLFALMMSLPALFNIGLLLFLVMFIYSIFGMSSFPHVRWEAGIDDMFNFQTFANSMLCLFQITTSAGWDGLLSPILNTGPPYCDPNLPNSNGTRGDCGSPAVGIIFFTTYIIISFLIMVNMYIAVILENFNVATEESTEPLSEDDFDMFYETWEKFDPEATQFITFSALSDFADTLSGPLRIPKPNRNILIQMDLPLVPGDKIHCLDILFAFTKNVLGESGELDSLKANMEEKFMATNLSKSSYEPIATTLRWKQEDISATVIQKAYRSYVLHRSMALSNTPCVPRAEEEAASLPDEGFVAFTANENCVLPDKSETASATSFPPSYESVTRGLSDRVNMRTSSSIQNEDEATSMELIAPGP

| SMILES | pIC50 (Human Nav1.8; [2]) | pIC50 [1] | pIC50 (Human Nav1.5; [3]) | pIC50 (Human Nav1.8) | pIC50 (Human Nav1.5) |
| --- | --- | --- | --- | --- | --- |
| Cn1nccc1C(=O)Nc1ccc(-c2cc(Cl)cc(Cl)c2Cl)c(N)n1 [Example 4, N-[6-Amino-5-(2,3,5-trichlorophenyl)pyridin-2-yl]-1-methyl-1H-pyrazole-5-carboxamide] | 6.17 | – | – | – | – |
| Cc1oncc1C(=O)Nc1ccc(-c2cc(Cl)ccc2Cl)c(N)n1 [Example 21, N-[6-Amino-5-(2,5-dichlorophenyl)pyridin-2-yl]-5-methylisoxazole-4-carboxamide] | 4.64 | 4.57 | – | – | – |
| Cc1oncc1C(=O)Nc1ccc(-c2cc(Cl)cc(Cl)c2Cl)c(N)n1 [Example 22, N-[6-Amino-5-(2,3,5-trichlorophenyl)pyridin-2-yl]-5-methylisoxazole-4-carboxamide] | 6.00 | – | 5.34 | – | – |
| Cc1nocc1C(=O)Nc1ccc(-c2cc(Cl)ccc2Cl)c(N)n1 [Example 25, N-[6-Amino-5-(2,5-dichlorophenyl)pyridin-2-yl]-3-methylisoxazole-4-carboxamide] | 5.80 | 5.00 | – | – | – |
| Cc1nocc1C(=O)Nc1ccc(-c2cc(Cl)cc(Cl)c2Cl)c(N)n1 [Example 28, N-[6-Amino-5-(2,3,5-trichlorophenyl)pyridin-2-yl]-3-methylisoxazole-4-carboxamide] | 6.17 | – | 5.02 | – | – |
| Cc1nonc1C(=O)Nc1ccc(-c2cc(Cl)ccc2Cl)c(N)n1 [Example 44, N-[6-Amino-5-(2,5-dichlorophenyl)pyridin-2-yl]-4-methyl-1,2,5-oxadiazole-3-carboxamide] | 5.49 | 5.09 | – | – | – |
| COc1ccc(Cl)c(-c2ccc(NC(=O)c3nonc3C)nc2N)c1 [Example 45, N-[6-Amino-5-(2-chloro-5-methoxyphenyl)pyridin-2-yl]-4-methyl-1,2,5-oxadiazole-3-carboxamide] | 5.59 | 4.89 | – | – | – |
| Cc1nonc1C(=O)Nc1ccc(-c2ccccc2Cl)c(N)n1 [Example 46, N-[6-Amino-5-(2-chlorophenyl)pyridin-2-yl]-4-methyl-1,2,5-oxadiazole-3-carboxamide] | 5.92 | 4.52 | – | – | – |
| Cc1nonc1C(=O)Nc1ccc(-c2ccc(Cl)cc2Cl)c(N)n1 [Example 49, N-[6-Amino-5-(2,4-dichlorophenyl)pyridin-2-yl]-4-methyl-1,2,5-oxadiazole-3-carboxamide] | 5.21 | 4.92 | – | – | – |
| COc1cc(Cl)cc(-c2ccc(NC(=O)c3nonc3C)nc2N)c1Cl [Example 51, N-[6-Amino-5-(2,5-dichloro-3-methoxyphenyl)pyridin-2-yl]-4-methyl-1,2,5-oxadiazole-3-carboxamide] | 5.59 | 5.35 | – | – | – |
| CC(C)n1nccc1C(=O)Nc1ccc(-c2ccccc2Cl)c(N)n1 [Example 66, N-[6-Amino-5-(2-chlorophenyl)pyridin-2-yl]-1-isopropyl-1H-pyrazole-5-carboxamide] | 5.62 | 4.96 | – | – | – |
| Nc1nc(NC(=O)c2ccon2)ccc1-c1cc(Cl)ccc1Cl [Example 72, N-[6-Amino-5-(2,5-dichlorophenyl)pyridin-2-yl]isoxazole-3-carboxamide] | 5.07 | 4.82 | – | – | – |
| Nc1nc(NC(=O)c2ccon2)ccc1-c1ccccc1Cl [Example 74, N-[6-Amino-5-(2-chlorophenyl)pyridin-2-yl]isoxazole-3-carboxamide] | 5.38 | 4.52 | – | – | – |
| CC(C)Oc1ccc(F)cc1-c1ccc(NC(=O)c2ccnn2C)nc1N [Example 109, N-[6-amino-5-(5-fluoro-2-isopropoxyphenyl)pyridin-2-yl]-1-methyl-1H-pyrazole-5-carboxamide] | 5.24 | – | 4.57 | – | – |
| CCOc1ccc(OC(F)(F)F)c(-c2ccc(NC(=O)c3ccnn3C)nc2N)c1 [Example 110, N-{6-amino-5-[5-ethoxy-2-(trifluoromethoxy)phenyl]pyridin-2-yl}-1-methyl-1H-pyrazole-5-carboxamide] | 5.82 | – | 5.64 | – | – |
| COc1ccc(F)cc1-c1ccc(NC(=O)c2conc2C)nc1N [Example 123] | 5.62 | – | < 4.49 | – | – |
| COc1cccc(-c2ccc(NC(=O)c3ccnn3C)nc2N)c1OC [Example 125] | – | – | – | 4.60 | < 4.49 |
| COCc1ccccc1-c1ccc(NC(=O)c2conc2C)nc1N [Example 129] | 5.46 | – | 4.70 | – | – |
| CCOc1ccccc1-c1ccc(NC(=O)c2ccnn2C)nc1N [Example 130] | 5.64 | – | 4.66 | – | – |

| SMILES | pIC50 (Human Nav1.8; [2]) | pIC50 [1] | pIC50 (Human Nav1.5; [3]) | pIC50 (Human Nav1.8) | pIC50 (Human Nav1.5) |
| --- | --- | --- | --- | --- | --- |
| CC(C)COc1ccccc1-c1ccc(NC(=O)c2ccnn2C)nc1N [Example 131] | 6.19 | – | 4.74 | – | – |
| CCOc1ccc(F)cc1-c1ccc(NC(=O)c2ccnn2C)nc1N [Example 132] | 5.82 | – | < 4.49 | – | – |
| COc1cccc(-c2ccc(NC(=O)c3conc3C)nc2N)c1OC [Example 133] | 5.54 | – | < 4.49 | – | – |
| Cc1nocc1C(=O)Nc1ccc(-c2ccccc2OCC(F)(F)F)c(N)n1 [Example 134] | 6.39 | – | 4.74 | – | – |
| CCOc1ccc(F)cc1-c1ccc(NC(=O)c2conc2C)nc1N [Example 135] | 6.55 | – | 4.59 | – | – |
| CCCOc1ccc(F)cc1-c1ccc(NC(=O)c2ccnn2C)nc1N [Example 136] | 6.22 | – | 4.57 | – | – |
| Cc1ccc(OC(F)(F)F)c(-c2ccc(NC(=O)c3ccnn3C)nc2N)c1 [Example 137] | 5.92 | – | 4.74 | – | – |
| COCc1ccc(Cl)c(-c2ccc(NC(=O)c3conc3C)nc2N)c1 [Example 138] | 6.00 | – | 4.64 | – | – |
| Cn1nccc1C(=O)Nc1ccc(-c2ccccc2CC(F)(F)F)c(N)n1 [Example 139] | 5.68 | – | 5.12 | – | – |
| COc1ccc(OC(F)(F)F)c(-c2ccc(NC(=O)c3ccnn3C)nc2N)c1 [Example 140] | 6.37 | – | 4.74 | – | – |
| COCc1ccc(Cl)c(-c2ccc(NC(=O)c3ccnn3C)nc2N)c1 [Example 141] | 5.27 | – | < 4.49 | – | – |
| COc1ccc(Cl)c(-c2ccc(NC(=O)c3ccnn3C(C)C)nc2N)c1 [Example 142] | 6.02 | – | 4.77 | – | – |
| Cn1nccc1C(=O)Nc1ccc(-c2ccccc2OCC2CC2)c(N)n1 [Example 143] | 6.01 | – | 4.62 | – | – |
| CCCCOc1ccc(F)cc1-c1ccc(NC(=O)c2ccnn2C)nc1N [Example 144] | 6.28 | – | 4.64 | – | – |
| Cc1nocc1C(=O)Nc1ccc(-c2cc(F)ccc2OC(C)C)c(N)n1 [Example 145] | 5.82 | – | 4.55 | – | – |
| Cc1nocc1C(=O)Nc1ccc(-c2ccccc2CC(F)(F)F)c(N)n1 [Example 146] | – | – | 4.89 | – | – |
| COCCOc1ccc(F)cc1-c1ccc(NC(=O)c2ccnn2C)nc1N [Example 147] | 4.92 | – | < 4.49 | – | – |
| COc1ccc(OC(F)(F)F)c(-c2ccc(NC(=O)c3conc3C)nc2N)c1 [Example 148] | 6.25 | – | 5.00 | – | – |
| COCCOc1ccccc1-c1ccc(NC(=O)c2conc2C)nc1N [Example 149] | 5.40 | – | < 4.49 | – | – |

| SMILES | pIC50 (Human Nav1.8; [2]) | pIC50 [1] | pIC50 (Human Nav1.5; [3]) | pIC50 (Human Nav1.8) | pIC50 (Human Nav1.5) |
| --- | --- | --- | --- | --- | --- |
| CCOc1ccc(Cl)c(-c2ccc(NC(=O)c3ccnn3C)nc2N)c1 [Example 150] | 5.60 | – | 4.72 | – | – |
| COCCOc1ccc(Cl)c(-c2ccc(NC(=O)c3ccnn3C)nc2N)c1 [Example 151] | 5.29 | – | < 4.49 | – | – |
| COCCCOc1ccc(F)cc1-c1ccc(NC(=O)c2conc2C)nc1N [Example 152] | 5.72 | – | 4.51 | – | – |
| COCCCOc1ccc(F)cc1-c1ccc(NC(=O)c2ccnn2C)nc1N [Example 153] | – | – | < 4.49 | 5.06 | – |
| CCOc1ccc(Cl)c(-c2ccc(NC(=O)c3conc3C)nc2N)c1 [Example 154] | 6.33 | – | 5.00 | – | – |
| COCCOc1ccccc1-c1ccc(NC(=O)c2ccnn2C)nc1N [Example 155] | 4.74 | – | < 4.49 | – | – |
| COCCCOc1ccccc1-c1ccc(NC(=O)c2conc2C)nc1N [Example 156] | 5.51 | – | 4.51 | – | – |
| COCCCOc1ccccc1-c1ccc(NC(=O)c2ccnn2C)nc1N [Example 157] | 5.02 | – | < 4.49 | – | – |
| COC(C)COc1ccc(F)cc1-c1ccc(NC(=O)c2ccnn2C)nc1N (stereo not shown) [Example 158] | 4.82 | – | < 4.49 | – | – |
| COC(C)COc1ccc(F)cc1-c1ccc(NC(=O)c2conc2C)nc1N (stereo not shown) [Example 159] | 5.33 | – | < 4.49 | – | – |
| COC(C)COc1ccccc1-c1ccc(NC(=O)c2ccnn2C)nc1N (stereo not shown) [Example 160] | 4.89 | – | < 4.49 | – | – |
| COC(C)COc1ccccc1-c1ccc(NC(=O)c2conc2C)nc1N (stereo not shown) [Example 161] | 5.17 | – | < 4.49 | – | – |
| CCCOc1ccc(F)cc1-c1ccc(NC(=O)c2conc2C)nc1N [Example 162] | 7.05 | – | 5.11 | – | – |
| Cc1nocc1C(=O)Nc1ccc(-c2cc(Cl)ccc2OCC(F)(F)F)c(N)n1 [Example 163] | 6.32 | – | 5.00 | – | – |
| Cc1nocc1C(=O)Nc1ccc(-c2cc(F)ccc2OC2CCOC2)c(N)n1 (stereo not shown) [Example 167] | 4.96 | – | < 4.49 | – | – |
| COCCOc1ccc(F)cc1-c1ccc(NC(=O)c2conc2C)nc1N [Example 169] | 5.31 | – | < 4.49 | – | – |
| COCCOc1ccc(Cl)c(-c2ccc(NC(=O)c3conc3C)nc2N)c1 [Example 170] | 6.05 | – | 4.68 | – | – |
| Cc1nocc1C(=O)Nc1ccc(-c2cc(O)cc(Cl)c2Cl)c(N)n1 [Example 176] | 5.85 | – | 5.00 | – | – |
| Cn1nccc1C(=O)Nc1ccc(-c2cc(O)cc(Cl)c2Cl)c(N)n1 [Example 177] | 5.89 | – | 4.92 | – | – |
